Entries after “also recorded” stand apart in the source; their conditions may differ.
Tests used:
Assay type in all cases: cell-based, mouse
[1] = system: WT MEFs and presenilin-mutant (PS-DKO) cells; experiment: Filipin staining of free cholesterol; settings: WT MEFs treated with DAPT, then BACE1 inhibitor
Procedure: Cells were washed in PBS and fixed in 3% paraformaldehyde at room temperature for 1 h. After washing in PBS three times, samples were incubated in 1.5 mg/ml glycine in 1×PBS to quench the paraformaldehyde and then incubated in 0.05 mg/ml of filipin in PBS/10% FBS for 2 h at room temperature. Free cholesterol signal was visualized in by microscopy and quantified by ImageJ.

WT and PS-DKO cells = experiment: Mitochondrial content and biogenesis (VDAC, TOM20 western blot; PGC-1α qRT-PCR)
Procedure: Total RNA was extracted from MEFs using TRIzol® Reagent (Invitrogen 15596-018) according to the manufacture's instructions, and was quantified by NanoDrop2000 (Thermo Scientific). […] of total RNA was used to obtain cDNA by RT-PCR using a High Capacity cDNA Reverse Transcription Kit (Applied Biosystems; PN 4368813, 4374966). Real-Time PCR was performed in triplicate in a StepOnePlus™ Real-Time PCR System (Applied Biosystems; 4376600). The expression of each gene under study was analyzed using specific predesigned TaqMan Probes (PGC-1α, ppargc1 Mm01208835_m1; aSMase, smpd1 Mm00488319_g1; nSMase, smpd3 Mm00491359_m1). The expression of each gene under study was analyzed using specific predesigned TaqMan Probes and normalizing against Gapdh expression (Applied Biosystems, 4352339E) as an internal standard.
Total RNA was extracted from MEFs using TRIzol® Reagent (Invitrogen 15596-018) according to the manufacture's instructions, and was quantified by NanoDrop2000 (Thermo Scientific). […] The expression of each gene under study was analyzed using specific predesigned TaqMan Probes (PGC-1α, ppargcl Mm01208835_ml; aSMase, smpd1 Mm00488319_g1; nSMase, smpd3 Mm00491359_ml). The forward and reverse primers for COXI quantification were, respectively, ([…] (SEQ ID NO: 5); […] (SEQ ID NO: 6)). […]

[2] = system: mitochondrial respiratory supercomplexes; experiment: Supercomplex analysis (blue-native gels, in-gel activity and western blot)
Procedure: Analysis and quantification of mitochondrial respiratory complexes by western blot and enzymatic in-gel activity were carried out as previously reported (Acin-Perez et al., 2008)
Analysis and quantification of mitochondrial respiratory complexes by Western blot and enzymatic in-gel activity were carried out as described (Acin-Perez et al, 2008).

SMILES	distribution of free cholesterol (filipin staining punctae) [1]	mitochondrial content / biogenesis (VDAC, TOM20, PGC-1α mRNA) (WT and PS-DKO cells)	activity of supercomplexes I+III+IV, I+III and III+IV (in-gel complex I and IV activity) ([2]; mitochondria from PS-DKO cells incubated with BI or myriocin)	assembly of respiratory supercomplexes (blue-native PAGE western blot) ([2]; mitochondria from PS-DKO cells, anti-complex I and III antibodies)	activity of supercomplexes I+III+IV, I+III and III+IV ([2]; mitochondria from DAPT-treated WT cells)
C[C@@H](NC(=O)c1cc(C(=O)N[C@@H](Cc2ccccc2)[C@H](O)CNC2CC2)cc(N(C)S(C)(=O)=O)c1)c1ccccc1 [BI, β-secretase inhibitor IV]	reverse it	without changes in mitochondria; also recorded: do not affect mitochondrial biogenesis	rescued	increases the assembly of supercomplexes I+III and I+III+IV	–
C[C@H](NC(=O)Cc1cc(F)cc(F)c1)C(=O)N[C@H](C(=O)OC(C)(C)C)c1ccccc1 [DAPT]	this phenotype was recapitulated	do not affect mitochondrial biogenesis	–	–	decrease in the activity of supercomplexes
